Drawing on US11427548B2 (Arvinas Operations, Inc., priority 2015, dated 2022), this text covers Dmax and DC50 for 22 compounds.

Read-outs that look alike come from different tables or passages of the source.

As a reminder, the Dmax is the greatest extent of degradation seen. Usually DC50 stands for the concentration giving 50% degradation.

Assay [1] addresses T1, Androgen Receptor (Homo sapiens, UniProt P10275+P40337, T878A).
T1 construct: Compounds have been evaluated in this assay in LNCaP and/or VCaP cells utilizing similar protocols; endogenous in cells; host or cells: LNCaP cells
Put plainly: Androgen Receptor ELISA assay (PathScan AR ELISA) in LNCaP cells: AR degradation, Dmax and DC50. In kind it is cell-based. The note with it: for DC50: concentration that caused 50% Androgen Receptor degradation. A general note: An ELISA detects its analyte on a solid surface through an enzyme-linked reagent.

Assay [2] concerns the target T2, Androgen Receptor (Homo sapiens, UniProt P10275).
T2 construct: endogenous in cells; host or cells: VCaP cells
T2 sequence (P10275 1-920): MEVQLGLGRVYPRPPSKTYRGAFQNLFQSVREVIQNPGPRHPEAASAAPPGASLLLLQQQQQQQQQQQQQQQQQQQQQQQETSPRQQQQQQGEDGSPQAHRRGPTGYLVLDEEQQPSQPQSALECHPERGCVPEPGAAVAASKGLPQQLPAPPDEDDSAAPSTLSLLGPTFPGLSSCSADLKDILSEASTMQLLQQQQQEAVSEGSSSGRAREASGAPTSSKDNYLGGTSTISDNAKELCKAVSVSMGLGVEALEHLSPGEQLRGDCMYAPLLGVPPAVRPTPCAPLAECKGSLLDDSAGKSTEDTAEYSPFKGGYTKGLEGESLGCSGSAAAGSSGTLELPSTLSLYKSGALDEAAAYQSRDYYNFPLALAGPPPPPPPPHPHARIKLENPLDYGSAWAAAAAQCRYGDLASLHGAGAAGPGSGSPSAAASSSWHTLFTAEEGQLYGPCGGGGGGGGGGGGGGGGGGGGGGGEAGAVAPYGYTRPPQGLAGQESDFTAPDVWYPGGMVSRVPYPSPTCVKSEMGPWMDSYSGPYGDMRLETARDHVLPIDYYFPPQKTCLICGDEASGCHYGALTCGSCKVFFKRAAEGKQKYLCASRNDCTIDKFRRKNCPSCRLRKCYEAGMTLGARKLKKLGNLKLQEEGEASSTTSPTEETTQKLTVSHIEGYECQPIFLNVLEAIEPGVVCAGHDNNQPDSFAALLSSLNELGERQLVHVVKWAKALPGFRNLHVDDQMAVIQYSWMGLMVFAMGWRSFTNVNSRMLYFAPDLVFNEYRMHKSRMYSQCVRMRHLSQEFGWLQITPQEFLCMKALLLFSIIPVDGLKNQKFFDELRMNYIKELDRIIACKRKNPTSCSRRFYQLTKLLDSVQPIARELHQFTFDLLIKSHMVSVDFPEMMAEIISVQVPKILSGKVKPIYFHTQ
Put plainly: Androgen Receptor ELISA assay (PathScan AR ELISA) in VCaP cells: AR degradation, Dmax and DC50. In kind it is cell-based. The procedure, abridged:
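VCaP cells, 30,000/well, grown ≥3 days in phenol red-free RPMI with 5% charcoal-stripped FBS; compound added in 0.1% DMSO with 0.1 nM R1881, 7 half-log doses, 24 h. Lysate AR quantified by PathScan sandwich ELISA, HRP/TMB read at 450 nm, giving DC50 and Dmax.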

Setting [3] is: highest percentage of Androgen Receptor degradation observed.
Where [4] appears, read: read-out: VCaP DC50; concentration that caused 50% Androgen Receptor degradation, VCaP cells.
[5] abbreviates: highest percentage of Androgen Receptor degradation.

T1 sequence (P10275 whole entry T878A): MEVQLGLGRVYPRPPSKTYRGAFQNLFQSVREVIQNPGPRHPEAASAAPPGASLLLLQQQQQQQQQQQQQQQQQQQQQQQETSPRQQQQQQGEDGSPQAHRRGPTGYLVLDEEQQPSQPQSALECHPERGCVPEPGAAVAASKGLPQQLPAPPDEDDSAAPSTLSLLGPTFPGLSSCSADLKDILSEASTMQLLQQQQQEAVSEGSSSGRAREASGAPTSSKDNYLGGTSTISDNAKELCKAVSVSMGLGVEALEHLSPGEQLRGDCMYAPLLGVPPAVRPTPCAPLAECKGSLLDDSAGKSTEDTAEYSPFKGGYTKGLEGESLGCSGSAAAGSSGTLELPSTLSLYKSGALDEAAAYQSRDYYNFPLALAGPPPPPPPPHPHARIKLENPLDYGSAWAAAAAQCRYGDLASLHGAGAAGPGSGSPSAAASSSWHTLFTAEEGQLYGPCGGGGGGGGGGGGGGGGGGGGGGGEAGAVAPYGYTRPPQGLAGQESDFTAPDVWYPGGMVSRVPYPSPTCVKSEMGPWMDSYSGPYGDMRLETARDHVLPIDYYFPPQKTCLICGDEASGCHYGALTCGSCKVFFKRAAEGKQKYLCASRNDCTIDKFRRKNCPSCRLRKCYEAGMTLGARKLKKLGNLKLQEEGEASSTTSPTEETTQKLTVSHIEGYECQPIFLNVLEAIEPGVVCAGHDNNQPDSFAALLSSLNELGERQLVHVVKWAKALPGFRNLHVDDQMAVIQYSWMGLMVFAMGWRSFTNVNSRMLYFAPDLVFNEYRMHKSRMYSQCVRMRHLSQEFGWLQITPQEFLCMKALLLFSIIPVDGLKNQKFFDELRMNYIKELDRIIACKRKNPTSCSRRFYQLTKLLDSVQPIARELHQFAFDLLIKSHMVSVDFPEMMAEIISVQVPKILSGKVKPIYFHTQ
T1 sequence (P40337 whole entry): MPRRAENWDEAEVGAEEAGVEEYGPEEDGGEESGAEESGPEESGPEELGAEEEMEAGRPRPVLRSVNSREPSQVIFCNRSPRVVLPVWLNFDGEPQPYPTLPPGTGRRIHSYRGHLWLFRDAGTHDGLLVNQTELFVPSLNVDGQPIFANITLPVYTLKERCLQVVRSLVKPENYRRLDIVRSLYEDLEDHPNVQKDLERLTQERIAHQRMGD
T1 sequence (Q15369 whole entry partner): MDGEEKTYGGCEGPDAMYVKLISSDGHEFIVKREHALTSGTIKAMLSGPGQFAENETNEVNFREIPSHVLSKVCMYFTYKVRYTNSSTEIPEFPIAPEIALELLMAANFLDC
T1 sequence (Q15370 whole entry partner): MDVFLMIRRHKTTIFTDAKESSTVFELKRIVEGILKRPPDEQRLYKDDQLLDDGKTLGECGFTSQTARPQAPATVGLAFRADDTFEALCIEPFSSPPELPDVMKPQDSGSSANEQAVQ

Consider `Cc1ncsc1-c1ccc(CNC(=O)[C@@H]2C[C@@H](O)CN2C(=O)[C@@H](NC(=O)COCCCOCCCCCOc2ccc(N3C(=S)N(c4cnc(C#N)c(C(F)(F)F)c4)C(=O)C3(C)C)cc2)C(C)(C)C)cc1` [Example 2, (2S,4R)-1-((S)-2-(2-(3-(5-(4-(3-(6-cyano-5-(trifluoromethyl)pyridin-3-yl)-5,5-dimethyl-4-oxo-2-thioxoimidazolidin-1-yl)phenoxy)pentyloxy)propoxy)acetamido)-3,3-dimethylbutanoyl)-4-hydroxy-N-(4-(4-methylthiazol-5-yl)benzyl)pyrrolidine-2-carboxamide], for which the Dmax is greater than 71% at Androgen Receptor [1] (setting [3]) and 51 to 70% at Androgen Receptor [2] (VCaP, read-out: VCaP Dmax (%)). On Androgen Receptor [2] (concentration that caused 50% Androgen Receptor degradation, VCaP cells; read-out: VCaP DC50), the DC50 is less than 50 nM.
For `Cc1ncsc1-c1ccc([C@H](C)NC(=O)[C@@H]2C[C@@H](O)CN2C(=O)[C@@H](NC(=O)COCCCOCCCCCOc2ccc(N3C(=S)N(c4ccc(C#N)c(C(F)(F)F)c4)C(=O)C3(C)C)cc2)C(C)(C)C)cc1` [Example 4, (2S,4R)-1-[(2S)-2-[2-(3-{[5-(4-{3-[4-cyano-3-(trifluoromethyl)phenyl]-5,5-dimethyl-4-oxo-2-sulfanylideneimidazolidin-1-yl}phenoxy)pentyl]oxy}propoxy)acetamido]-3,3-dimethylbutanoyl]-4-hydroxy-N-[(1S)-1-[4-(4-methyl-1,3-thiazol-5-yl)phenyl]ethyl]pyrrolidine-2-carboxamide], the DC50 on Androgen Receptor [1] and on Androgen Receptor [2] (setting [4]) was less than 50 nM each time. For the same compound, the greatest degradation seen (Dmax) is greater than 71% at Androgen Receptor [1] (setting [3]) and 51 to 70% on Androgen Receptor [2] (VCaP, read-out: VCaP Dmax (%)).
With `Cc1ncsc1-c1ccc(CNC(=O)[C@@H]2C[C@@H](O)CN2C(=O)[C@@H](NC(=O)COCCCOCCCCCOc2ccc(N3C(=S)N(c4ccc(C#N)c(Cl)c4)C(=O)C3(C)C)cc2)C(C)(C)C)cc1` [Example 8], the DC50 on Androgen Receptor [1] and at Androgen Receptor [2] (setting [4]) was less than 50 nM in each case. For the same compound, the Dmax at Androgen Receptor [1] (setting [3]) is greater than 71%; at Androgen Receptor [2] (VCaP, read-out: VCaP Dmax (%)), 51 to 70%.
The compound `Cc1ncsc1-c1ccc(CNC(=O)[C@@H]2C[C@@H](O)CN2C(=O)[C@H](C(C)C)N2Cc3cc(CCCCOCCCOc4ccc(N5C(=S)N(c6ccc(C#N)c(C(F)(F)F)c6)C(=O)C5(C)C)cc4)ccc3C2=O)cc1` [Example 273] yielded a DC50 on Androgen Receptor [1] greater than 501 nM. Also, the greatest degradation seen (Dmax) on Androgen Receptor [1] (setting [5]) fell in the range of 26 to 50%.
The corresponding values for `Cc1ncsc1-c1ccc(CNC(=O)[C@@H]2C[C@@H](O)CN2C(=O)[C@@H](NC(=O)c2ccc(OCCOCCCOc3ccc(N4C(=S)N(c5ccc(C#N)c(C(F)(F)F)c5)C(=O)C4(C)C)cc3)cc2)C(C)(C)C)cc1` [Example 274] are 51 to 500 nM and 26 to 50%.
The corresponding values for `Cc1ncsc1-c1ccc(CNC(=O)[C@@H]2C[C@@H](O)CN2C(=O)[C@@H](NC(=O)c2ccccc2OCCCOc2ccc(N3C(=S)N(c4ccc(C#N)c(C(F)(F)F)c4)C(=O)C3(C)C)cc2)C(C)(C)C)cc1` [Example 275] are greater than 501 nM and less than 25%.
The corresponding values for `Cc1ncsc1-c1ccc(CNC(=O)[C@@H]2C[C@@H](O)CN2C(=O)[C@@H](NC(=O)c2ccccc2OCCCCOc2ccc(N3C(=S)N(c4ccc(C#N)c(C(F)(F)F)c4)C(=O)C3(C)C)cc2)C(C)(C)C)cc1` [Example 276] are greater than 501 nM and less than 25%.
With `Cc1ncsc1-c1ccc(CNC(=O)[C@@H]2C[C@@H](O)CN2C(=O)[C@@H](NC(=O)c2cccc(OCCCOc3ccc(N4C(=S)N(c5ccc(C#N)c(C(F)(F)F)c5)C(=O)C4(C)C)cc3)c2)C(C)(C)C)cc1` [Example 277], the DC50 at Androgen Receptor [1] lay within 51 to 500 nM. The Dmax on Androgen Receptor [1] (setting [5]) is less than 25%.
For `Cc1ncsc1-c1ccc(CNC(=O)[C@@H]2C[C@@H](O)CN2C(=O)[C@H](C(C)C)N2Cc3ccccc3C2=O)c(OCCCCOCCCOc2ccc(N3C(=S)N(c4ccc(C#N)c(C(F)(F)F)c4)C(=O)C3(C)C)cc2)c1` [Example 279] the same measures were greater than 501 nM and 51 to 70%.
The compound `CC[C@H](NC(C)=O)C(=O)N1C[C@H](O)C[C@H]1C(=O)NCc1ccc(-c2scnc2C)cc1OCCOCCOCCOc1ccc(N2C(=S)N(c3ccc(C#N)c(C(F)(F)F)c3)C(=O)C2(C)C)cc1` [Example 280] yielded a DC50 at Androgen Receptor [1] greater than 501 nM. On Androgen Receptor [1] (setting [5]), this compound registered a Dmax of 26 to 50%.
For `CC(=O)N[C@H](C(=O)N1C[C@H](O)C[C@H]1C(=O)NCc1ccc(-c2scnc2C)cc1OCCOCCOCCOc1ccc(N2C(=S)N(c3ccc(C#N)c(C(F)(F)F)c3)C(=O)C2(C)C)cc1)C(C)C` [Example 281], the DC50 on Androgen Receptor [1] is greater than 501 nM. On Androgen Receptor [1] (setting [5]), this compound gave a Dmax of 51 to 70%.
For `Cc1ncsc1-c1ccc(CNC(=O)[C@@H]2C[C@@H](O)CN2C(=O)[C@@H](NC(=O)c2ccccc2OCCOCCOc2ccc(N3C(=S)N(c4ccc(C#N)c(C(F)(F)F)c4)C(=O)C3(C)C)cc2)C(C)(C)C)cc1` [Example 282] the same measures were 51 to 500 nM and 51 to 70%.
For `Cc1ncsc1-c1ccc(CNC(=O)[C@@H]2C[C@@H](O)CN2C(=O)[C@@H](NC(=O)c2cccc(OCCOCCOc3ccc(N4C(=S)N(c5ccc(C#N)c(C(F)(F)F)c5)C(=O)C4(C)C)cc3)c2)C(C)(C)C)cc1` [Example 283] the same measures were 51 to 500 nM and 51 to 70%.
The corresponding values for `Cc1ncsc1-c1ccc(CNC(=O)[C@@H]2C[C@@H](O)CN2C(=O)[C@@H](NC(=O)c2ccc(OCCCOc3ccc(-c4ccc(N5C(=S)N(c6ccc(C#N)c(C(F)(F)F)c6)C(=O)C5(C)C)cc4)cc3)cc2)C(C)(C)C)cc1` [Example 284] are 51 to 500 nM and 26 to 50%.
For `Cc1ncsc1-c1ccc(CNC(=O)[C@@H]2C[C@@H](O)CN2C(=O)[C@@H](NC(=O)c2ccc(OCCCCOc3ccc(-c4ccc(N5C(=S)N(c6ccc(C#N)c(C(F)(F)F)c6)C(=O)C5(C)C)cc4)cc3)cc2)C(C)(C)C)cc1` [Example 285], the DC50 on Androgen Receptor [1] is greater than 501 nM. The Dmax at Androgen Receptor [1] (setting [5]) is less than 25%.
For `Cc1ncsc1-c1ccc(CNC(=O)[C@@H]2C[C@@H](O)CN2C(=O)[C@@H](NC(=O)c2ccc(OCCOc3ccc(-c4ccc(N5C(=S)N(c6ccc(C#N)c(C(F)(F)F)c6)C(=O)C5(C)C)cc4)cc3)cc2)C(C)(C)C)cc1` [Example 286] the same measures were less than 50 nM and 51 to 70%.
The corresponding values for `Cc1ncsc1-c1ccc(CNC(=O)[C@@H]2C[C@@H](O)CN2C(=O)[C@@H](NC(=O)c2ccc(C3CCN(CCCCOc4ccc(N5C(=S)N(c6ccc(C#N)c(C(F)(F)F)c6)C(=O)C5(C)C)cc4)CC3)cc2)C(C)(C)C)cc1` [Example 287] are greater than 501 nM and 51 to 70%.
In turn, `Cc1ncsc1-c1ccc(CNC(=O)[C@@H]2C[C@@H](O)CN2C(=O)[C@@H](NC(=O)c2ccc(C3CCN(CCCOc4ccc(N5C(=S)N(c6ccc(C#N)c(C(F)(F)F)c6)C(=O)C5(C)C)cc4)CC3)cc2)C(C)(C)C)cc1` [Example 289] gave a DC50 at Androgen Receptor [1] greater than 501 nM. On Androgen Receptor [1] (setting [5]), this compound came in with a Dmax of 26 to 50%.
For `Cc1ncsc1-c1ccc(CNC(=O)[C@@H]2C[C@@H](O)CN2C(=O)[C@@H](NC(=O)COCCCOC2CCN(C(=O)c3ccc(N4C(=S)N(c5ccc(C#N)c(C(F)(F)F)c5)C(=O)C4(C)C)cc3)CC2)C(C)(C)C)cc1` [Example 290] the same measures were greater than 501 nM and 51 to 70%.
For `Cc1ncsc1-c1ccc(CNC(=O)[C@@H]2C[C@@H](O)CN2C(=O)[C@@H](NC(=O)c2ccc(OCCOC3CCN(C(=O)c4ccc(N5C(=S)N(c6ccc(C#N)c(C(F)(F)F)c6)C(=O)C5(C)C)cc4)CC3)cc2)C(C)(C)C)cc1` [Example 291] the same measures were greater than 501 nM and less than 25%.
Compound `Cc1ncsc1-c1ccc(CNC(=O)[C@@H]2C[C@@H](O)CN2C(=O)[C@H](C(C)C)N2Cc3ccccc3C2=O)c(OCCO[C@@H]2CCC[C@@H]2OCCOc2ccc(N3C(=S)N(c4ccc(C#N)c(C(F)(F)F)c4)C(=O)C3(C)C)cc2)c1` [Example 304] showed a DC50 on Androgen Receptor [1] of 51 to 500 nM. Further, the Dmax at Androgen Receptor [1] (setting [5]) lay in the range of 26 to 50%.
`Cc1ncsc1-c1ccc(CNC(=O)[C@@H]2C[C@@H](O)CN2C(=O)[C@@H](NC(=O)CC(=O)CCCOCCCCCOc2ccc(N3C(=S)N(c4ccc(C#N)c(C(F)(F)F)c4)C(=O)C3(C)C)cc2)C(C)(C)C)cc1` [Example 305] came in with a DC50 at Androgen Receptor [1] of 51 to 500 nM. This compound returned a Dmax at Androgen Receptor [1] (setting [5]) of 51 to 70%.
